Experimental data published in US5962463A, “Methods of stimulating non-amyloidogenic processing of the amyloid precursor protein” (Massachusetts Institute Of Technology, priority 1997, dated 1999).
Structures can show the parent of a compound that is named as a salt.

Columns and labels:
[1] = molecular target: T1, human brain serotonin 5HT1C receptor (Homo sapiens, UniProt P28335); conditions: for effect on receptor-activated APP release in response to dexnorfenfluramine: 5HT1C transfected cell lines, FIG. 3
T1 sequence (P28335 33-458): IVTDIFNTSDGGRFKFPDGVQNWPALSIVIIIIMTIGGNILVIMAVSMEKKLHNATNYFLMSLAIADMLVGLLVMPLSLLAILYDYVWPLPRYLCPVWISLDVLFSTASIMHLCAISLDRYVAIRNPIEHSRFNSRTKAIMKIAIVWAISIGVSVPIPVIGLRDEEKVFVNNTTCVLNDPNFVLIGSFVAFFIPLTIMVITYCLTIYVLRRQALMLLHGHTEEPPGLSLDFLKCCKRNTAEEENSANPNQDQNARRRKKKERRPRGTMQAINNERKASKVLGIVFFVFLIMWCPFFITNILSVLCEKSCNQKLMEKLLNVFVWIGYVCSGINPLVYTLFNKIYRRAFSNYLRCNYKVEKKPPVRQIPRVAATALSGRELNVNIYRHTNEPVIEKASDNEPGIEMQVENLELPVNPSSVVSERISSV

[2] = taken orally by an individual; cited from earlier work
APP release = APP release and cell-associated APP in serotonin receptor transfected 3T3 cells (receptor subtype not stated); format: cell-based, human
[3] = molecular target: human brain serotonin 5HT2 receptor (Homo sapiens, UniProt P28223); conditions: for effect on receptor-activated APP release in response to serotonin: 5HT2 transfected cell lines, insert in FIG. 1C
[4] = system: human serotonin-1C surface receptor; test: Phosphatidylinositol turnover in NIH 3T3 cells expressing the 5HT1C receptor; format: cell-based; conditions: NIH 3T3 cells expressing 5-HT1C, FIG. 2B
From the text: FIG. 2A is a graphic representation of concentration dependent APP^S release by NIH 3T3 cells transfected with and expressing the gene for the human serotonin-1C surface receptor in response to activation by dexnorfenfluramine. FIG. 2B is a graphic representation of phosphatidylinositol turnover in the same cells in response to activation by dexnorfenfluramine.
In this instance, the agent interacts with and stimulates the serotonin surface receptor directly. […] Additional evidence is provided by the observation that turnover of phosphatidylinositol is stimulated in these cells by dexnorfenfluramine (FIG. 2B).

slices of rat brain = conditions: 100 μM, incubated in slices of rat brain; cited from earlier work
[5] = system: nontransfected human 3T3 cells; test: Basal release of APP fragments from wild-type (nontransfected) 3T3 cells; format: cell-based; conditions: wild-type cell lines, FIGS. 1A and 1C
From the text: Cultured human NIH 3T3 fibroblasts were utilized.
Molecular weight standards were obtained from Amersham.

[6] = 10 μM serotonin, 5HT2 transfected cells, FIG. 1D
[7] = stimulation with serotonin, Western blot

With `CN1CCN2c3ccccc3Cc3ccccc3C2C1` (centres unmarked) [mianserin] the “effect on receptor-activated APP release in response to dexnorfenfluramine” value (“effect … to dexnorfenfluramine” for short) [1] was “blocked”.

In the case of `CCN[C@@H](C)Cc1cccc(C(F)(F)F)c1` [dexfenfluramine], the “amounts of dexfenfluramine and its de-ethylated metabolite dexnorfenfluramine appearing in the brain” value [2] is given as “roughly equal amounts”.

With `CNc1ccc2oc(C[C@H]3O[C@@]4(CC[C@H]3C)O[C@H]([C@H](C)C(=O)c3ccc[nH]3)[C@H](C)C[C@H]4C)nc2c1C(=O)O` [A23187] the “ability to mimic the receptor-mediated stimulation of basal APP release” value (APP release; calcium ionophore, increased intracellular calcium alone) was “failure”.

In the case of `Cc1nc2sccn2c(=O)c1CCN1CCC(=C(c2ccc(F)cc2)c2ccc(F)cc2)CC1` [ritanserin], the “effect on receptor-activated APP release in response to serotonin” value [3] is reported as “blocked” and the “effect … to dexnorfenfluramine” value [1] is reported as “blocked”.

In the case of `O=C(c1ccc(F)cc1)C1CCN(CCn2c(=O)[nH]c3ccccc3c2=O)CC1` [ketanserin], the “effect on receptor-activated APP release in response to serotonin” value [3] is reported as “blocked” and the “effect … to dexnorfenfluramine” value [1] is reported as “blocked”.

In the case of `C[C@H](N)Cc1cccc(C(F)(F)F)c1` [dexnorfenfluramine, (+) 1-[3-(trifluoromethyl)-phenyl] propan-2-amine hydrochloride], the turnover of phosphatidylinositol [4] is listed as “stimulated”, the “increase of basal APP release” value ([1]; 5HT1C transfected cells, normalized to vehicle-treated controls) is listed as 3 fold and the “increase in the release of serotonin” value (slices of rat brain) is listed as 6-7 fold.

For `CN[C@@H]1C[C@H]2O[C@@](C)([C@@H]1OC)n1c3ccccc3c3c4c(c5c6ccccc6n2c5c31)C(=O)NC4` [staurosporine], the “effect on the serotonin effect on APP release” value (APP release; serotonin-stimulated transfected cells) was “inhibited”.

For `NCCc1c[nH]c2ccc(O)cc12` [serotonin], the “time to half-maximal stimulation of APP release” value [3, 6] was 30 to 40 min, the “time to maximum stimulation of APP release” value [3, 6] was no more than 120 min and the “128 kD APP derivative secreted into the culture medium” value (APP release; [7]) was “increase”. The “abundance of cell-associated 115 kD APP” value (APP release; [7]) was “remained unaffected”, the “abundance of cell-associated 141 kD APP” value (APP release; [7]) was “decreased” and the “stimulation of basal release of APP fragments” value [5] was “not stimulated”.
